Experimental data: ChEMBL document CHEMBL5584354, “Impact of Conjugation of the Reactive Oxygen Species (ROS)-Generating Catalytic Moiety with Membrane-Active Antimicrobial Peptoids: Promoting Multitarget Mechanism and Enhancing Selectivity” (J Med Chem, 2024)
Converted amounts (≈) assume the structure as drawn. The source made the active and inactive calls. No cut-off for these calls is given here. Non-standard residues stand in square brackets, D forms with d. Residues, ends and D or L forms follow the SMILES beside them. Gly(N(CH2)2(3-indolyl)) = O=C(O)CNCCc1c[nH]c2ccccc12; Nspe = C[C@H](NCC(=O)O)c1ccccc1; Nlys = NCCCCNCC(=O)O

Tests used:
Escherichia coli [1] = assay: Antibacterial activity against Escherichia coli ATCC 25922 assessed as inhibition of bacterial growth incubated for 24 hrs by broth dilution method; format: functional
[2] = Selectivity index, ratio of HC10 for hemolytic activity in male Sprague-Dawley rat erythrocytes to MIC for antibacterial activity against Escherichia coli ATCC 25922; format: toxicity; settings: read-out: Selectivity Index
HaCaT = assay: Cytotoxicity against human HaCaT cells assessed as cell killing incubated for 24 hrs by MTS assay; format: toxicity, cell-based
MRC5 = assay: Cytotoxicity against human MRC5 cells assessed as cell killing incubated for 24 hrs by MTS assay; format: toxicity, cell-based; settings: mrc5, 24 h
RAW264.7 [3] = assay: Cytotoxicity against mouse RAW264.7 cells assessed as cell killing incubated for 24 hrs by MTS assay; format: toxicity, cell-based; settings: raw264.7, 24 h
Escherichia coli [4] = assay: Antibacterial activity against carbapenem-resistant Escherichia coli NMS11035 harboring extended-spectrum beta-lactamase assessed as inhibition of bacterial growth incubated for 24 hrs by broth dilution method; format: functional
Escherichia coli [5] = assay: Antibacterial activity against colistin-resistant Escherichia coli NMS12 harboring extended-spectrum beta-lactamase assessed as inhibition of bacterial growth incubated for 24 hrs by broth dilution method; format: functional
Acinetobacter baumannii = assay: Antibacterial activity against carbapenem-resistant Acinetobacter baumannii NMS1707 harboring extended-spectrum beta-lactamase assessed as inhibition of bacterial growth incubated for 24 hrs by broth dilution method; format: functional
Klebsiella pneumoniae = assay: Antibacterial activity against carbapenem-resistant Klebsiella pneumoniae NMS118 harboring extended-spectrum beta-lactamase assessed as inhibition of bacterial growth incubated for 24 hrs by broth dilution method; format: functional
Lipopolysaccharide (LPS) = assay: Binding affinity to Escherichia coli O111:B4 LPS at 0 to 25 uM BODIPY-TR-cadaverine substitution assay; format: subcellular; settings: dose 0-25 µM
Escherichia coli [6] = assay: Induction of lipid peroxidation in Escherichia coli ATCC 25922 assessed as increase in MDA level at 10 uM incubated for 2 hrs by TBARS assay; format: functional, organism-based
Escherichia coli [7] = assay: Induction of lipid peroxidation in Escherichia coli ATCC 25922 at 12.5 uM incubated for 1 hrs by BODIPY 581/591 C11 dye based flow cytometry analysis; format: functional, organism-based
[8] = Cytotoxicity against mouse RAW264.7 cells assessed as cell viability at 10 uM incubated for 24 hrs by […] relative to control; format: toxicity, cell-based; settings: read-out: Activity
RAW264.7 [9] = assay: Antiinflammatory activity in LPS-stimulated mouse RAW264.7 cells assessed as reduction in IL-6 production at 10 uM incubated for 16 hrs by ELISA relative to control; format: functional; set-up: scale not given: the % may be the effect or the level left
RAW264.7 [10] = assay: Antiinflammatory activity in LPS-stimulated mouse RAW264.7 cells assessed as reduction in IL-1beta production at 10 uM incubated for 16 hrs by ELISA relative to control; format: functional; set-up: scale not given: the % may be the effect or the level left
RAW264.7 [11] = assay: Antiinflammatory activity in LPS-stimulated mouse RAW264.7 cells assessed as reduction in nitrite production at 10 uM incubated for 16 hrs by ELISA relative to control; format: functional; set-up: scale not given: the % may be the effect or the level left
HEK-Blue hTLR7 = assay: Inhibition of TLR4-mediated inflammatory signaling in LPS-stimulated HEK-Blue […] cells assessed as reduction in SEAP activity at 20 uM preincubated for 1 hr followed by LPS stimulation and measured after 16 hrs by ELISA relative to control; format: cell-based; settings: Homo sapiens, time 17.0 hrs
RAW264.7 [12] = assay: Inhibition of LPS-induced NF-kappaB pathway in mouse RAW264.7 cells assessed as reduction in NF-kappaB nuclear translocation at 10 uM preincubated for 1 hr followed by LPS addition and measured after 1 hr by immunofluorescence staining based confocal microscopic analysis; format: cell-based; settings: time 2.0 hrs
HEK293 = assay: Cytotoxicity against HEK293 cells assessed as reduction in cell viability at 3.1 to 25 uM incubated for 24 hrs by WST-8 assay; format: toxicity, cell-based; settings: human, hek293, 24 h, dose 3.1-25 µM
[13] = Toxicity in female ICR mouse assessed as effect on creatinine level in serum at 5 mg/kg, ip administered four doses for 12 hrs and measured 24 hrs post last dose; format: organism-based; settings: in vivo, 36 h
[14] = Toxicity in female ICR mouse assessed as effect on blood urea nitrogen level at 5 mg/kg, ip administered four doses for 12 hrs and measured 24 hrs post last dose; format: organism-based; settings: in vivo, 36 h
[15] = Toxicity in female ICR mouse assessed as effect on AST level in serum at 5 mg/kg, ip administered four doses for 12 hrs and measured 24 hrs post last dose; format: organism-based; settings: in vivo, 36 h
[16] = Toxicity in female ICR mouse assessed as effect on ALT level in serum at 5 mg/kg, ip administered four doses for 12 hrs and measured 24 hrs post last dose; format: organism-based; settings: in vivo, 36 h
[17] = Toxicity in female ICR mouse assessed as dilatation of interstitial blood capillaries in kidney at 5 mg/kg, ip administered four doses for 12 hrs and measured 24 hrs post last dose by H and E staining based light microscopic analysis; format: organism-based; settings: in vivo, 36 h
[18] = Toxicity in female ICR mouse assessed as dilatation of renal vein in kidney at 5 mg/kg, ip administered four doses for 12 hrs and measured 24 hrs post last dose by H and E staining based light microscopic analysis; format: organism-based; settings: in vivo, 36 h
Escherichia coli [19] = assay: (§1) Antibacterial activity against Escherichia coli K1 infected in female ICR mouse model of septic shock assessed as reduction in bacterial load in lung at 5 mg/kg, ip pretreated for 1 hr followed by bacteria addition and further treated with 3 doses of compound every 4 hrs; format: functional, organism-based; settings: time 9.0 hrs
Escherichia coli [20] = assay: Antibacterial activity against Escherichia coli K1 infected in female ICR mouse model of septic shock assessed as reduction in bacterial load in liver at 5 mg/kg, ip pretreated for 1 hr followed by bacteria addition and further treated with 3 doses of compound every 4 hrs; format: functional, organism-based; settings: time 9.0 hrs
Escherichia coli [21] = assay: Antibacterial activity against Escherichia coli K1 infected in female ICR mouse model of septic shock assessed as reduction in bacterial load in kidney at 5 mg/kg, ip pretreated for 1 hr followed by bacteria addition and further treated with 3 doses of compound every 4 hrs; format: functional, organism-based; settings: time 9.0 hrs
Escherichia coli [22] = assay: (§2) Antibacterial activity against Escherichia coli K1 infected in female ICR mouse model of septic shock assessed as reduction in IL-6 level in serum at 5 mg/kg, ip pretreated for 1 hr followed by bacteria addition and further treated with 3 doses of compound every 4 hrs by ELISA relative to control; format: functional; set-up: scale not given: the % may be the effect or the level left; settings: time 9 hrs
Escherichia coli [23] = assay: as §2, with “IL-1beta” for “IL-6”; format: functional; set-up: scale not given: the % may be the effect or the level left; settings: time 9 hrs
Escherichia coli [24] = assay: Antibacterial activity against Escherichia coli K1 infected in female ICR mouse model of septic shock assessed as creatinine level in serum at 5 mg/kg, ip pretreated for 1 hr followed by bacteria addition and further treated with 3 doses of compound every 4 hrs (reference value: 57.3%); format: functional; settings: time 9 hrs
Escherichia coli [25] = assay: as §1, with “in” for “in bacterial load in”, “lung edema” for “lung”, “hrs by H and E staining based light microscopic analysis” for “hrs”; format: functional, organism-based; settings: time 9.0 hrs
Escherichia coli [26] = assay: as §1, with “alveolar hemorrhage” for “bacterial load”, “hrs by H and E staining based light microscopic analysis” for “hrs”; format: functional, organism-based; settings: time 9.0 hrs
Escherichia coli [27] = assay: as §1, with “infiltrated […]” for “bacterial load”, “hrs by H and E staining based light microscopic analysis” for “hrs”; format: functional, organism-based; settings: time 9.0 hrs

Question: For `C[C@@H](c1ccccc1)N(CC(=O)N(CCCCN)CC(=O)N(CCc1c[nH]c2ccccc12)CC(=O)N(CCc1c[nH]c2ccccc12)CC(N)=O)C(=O)CN(CCCCN)C(=O)CN(CCCCN)C(=O)CN(C(=O)CN(C(=O)CN(CCCCN)C(=O)CN(C(=O)CN(C(=O)CN(CCCCN)C(=O)[C@H](Cc1c[nH]cn1)NC(=O)CNC(=O)CN)[C@@H](C)c1ccccc1)[C@@H](C)c1ccccc1)[C@@H](C)c1ccccc1)[C@@H](C)c1ccccc1` (H-GGH[Nlys][Nspe][Nspe][Nlys][Nspe][Nspe][Nlys][Nlys][Nspe][Nlys][Gly(N(CH2)2(3-indolyl))][Gly(N(CH2)2(3-indolyl))]-NH2), which MIC (Escherichia coli [1]) is on record?
Answer: The MIC was 6.3 µM (≈ 13.3 µg/mL).

Question: And the selectivity ratio [2]?
Answer: Its selectivity ratio is over 15.8.

Question: What about the LC50 (HaCaT) of the same compound?
Answer: The LC50 was 110 µM.

Question: What about the LC50 (MRC5) of the same compound?
Answer: Its LC50 is 187 µM.

Question: What about the LC50 (RAW264.7 [3]) of the same compound?
Answer: The LC50 was 39.6 µM.

Question: What about the MIC (Escherichia coli [4]) of the same compound?
Answer: The MIC was 12.5 µM (≈ 26.4 µg/mL).

Question: What about the MIC (Escherichia coli [5]) of the same compound?
Answer: Its MIC is 12.5 µM (≈ 26.4 µg/mL).

Question: And the MIC (Acinetobacter baumannii)?
Answer: The MIC was 3.1 µM (≈ 6.56 µg/mL).

Question: And the MIC (Klebsiella pneumoniae)?
Answer: The MIC was over 25 µM.

Question: And the Activity (Lipopolysaccharide (LPS))?
Answer: Its Activity is “Active”.

Question: What about the Activity (Escherichia coli [6]) of the same compound?
Answer: Its Activity is “Active”.

Question: What about the Activity (Escherichia coli [7]) of the same compound?
Answer: Its Activity is “Active”.

Question: And the viability at 24 h, 10 µM [8]?
Answer: The viability at 24 h, 10 µM was 94.5%.

Question: And the Activity (RAW264.7 [9])?
Answer: The Activity was 99.3%.

Question: What about the Activity (RAW264.7 [10]) of the same compound?
Answer: Its Activity is 36%.

Question: What about the Activity (RAW264.7 [11]) of the same compound?
Answer: Its Activity is 80.9%.

Question: And the inhibition (HEK-Blue hTLR7)?
Answer: Its inhibition is 84.3%.

Question: And the inhibition (RAW264.7 [12])?
Answer: Its inhibition is “Active”.

Question: And the Activity (HEK293)?
Answer: Its Activity is “Non-Toxic”.

Question: And the Activity [13]?
Answer: Its Activity is “Non-Toxic”.

Question: What about the Activity [14] of the same compound?
Answer: The Activity was “Non-Toxic”.

Question: And the Activity [15]?
Answer: Its Activity is “Non-Toxic”.

Question: What about the Activity [16] of the same compound?
Answer: Its Activity is “Non-Toxic”.

Question: And the Activity [17]?
Answer: The Activity was “Non-Toxic”.

Question: What about the Activity [18] of the same compound?
Answer: Its Activity is “Non-Toxic”.

Question: And the Activity (Escherichia coli [19])?
Answer: The Activity was “Active”.

Question: And the Activity (Escherichia coli [20])?
Answer: The Activity was “Active”.

Question: What about the Activity (Escherichia coli [21]) of the same compound?
Answer: The Activity was “Active”.

Question: And the Activity (Escherichia coli [22])?
Answer: Its Activity is 42.8%.

Question: What about the Activity (Escherichia coli [23]) of the same compound?
Answer: Its Activity is 48.3%.

Question: What about the Activity (Escherichia coli [24]) of the same compound?
Answer: Its Activity is 32.8%.

Question: And the Activity (Escherichia coli [25])?
Answer: Its Activity is “Active”.

Question: And the Activity (Escherichia coli [26])?
Answer: Its Activity is “Active”.

Question: What about the Activity (Escherichia coli [27]) of the same compound?
Answer: The Activity was “Active”.
